Publication PMC11279841, “New Members of the Centrapalus Coumarin and Pauciflorin Series from Centrapalus pauciflorus” (Pharmaceutics, 2024)
Where two headings read alike, the source gives them in different places. Values belong to the compound of their own block, whether it stands above or below them.

Columns and labels:
MCF-7 cells [1] = settings: cited from earlier work
HeLa cells [2] = settings: cited from earlier work
A2780 cells [3] = system: A2780 cells; set-up: method as in doi:10.1016/j.arabjc.2023.104777; settings: previous work; cited from earlier work
MCF-7 cells [4] = test: MTT antiproliferative assay, MCF-7 breast cancer cells; type: cell-based, human; settings: for inhibition at 10 µM / inhibition at 30 µM: Homo sapiens, read-out: Inhibition (%) ± SEM
Text: (§1) The antiproliferative activities of the isolated compounds were investigated on a panel of human adherent cancer cell lines using the 3-(4,5-dimethylthiazol-2-yl)-2,5-diphenyltetrazolium bromide) (MTT) assay. Cell lines isolated from cervical (HeLa and SiHa), breast (MCF-7 and MDA-MB-231), ovarian cancers (A2780), and non-malignant mouse fibroblasts (NIH/3T3) were purchased from the European Collection of Cell Cultures (Salisbury, UK). The SiHa cell line was obtained from the […] (Manassas, VA, USA). The cell culturing and determination of the antiproliferative effects of the isolated compounds were conducted using a methodology described previously. Calculations were performed using GraphPad Prism 5.01 software (GraphPad Software Inc., San Diego, CA, USA).
(§2) The antiproliferative properties of centrapalus coumarins N (2) and O (5) were investigated against a panel of human adherent tumor cell lines of gynecological origin by in vitro MTT assay (Table 4). The amounts of the other compounds were insufficient for the in vitro assay. Compounds 2 and 5 were tested on the breast (MCF-7, MDA-MB-231), cervical (HeLa, SiHa), and ovarian (A2780) cancer cells in two concentrations (10 and 30 µM). The anticancer agent cisplatin was used as a positive control. […] Non-cancerous mouse fibroblasts (NIH/3T3) were additionally included to characterize the cancer selectivity of the tested compounds. Since compounds 2 and 5 elicited weak action against fibroblasts, lower than against the ovarian cancer cells, their effect detected on A2780 cells could be regarded as selective.

MDA-MB-231 cells = test: MTT antiproliferative assay, MDA-MB-231 breast cancer cells; type: cell-based, human; settings: for inhibition at 10 µM / inhibition at 30 µM: Homo sapiens, read-out: Inhibition (%) ± SEM
Text: as §1, §2

HeLa cells [5] = test: MTT antiproliferative assay, HeLa cervical cancer cells; type: cell-based, human; settings: for inhibition at 10 µM / inhibition at 30 µM: Homo sapiens, read-out: Inhibition (%) ± SEM
Text: as §1, §2

SiHa cells [6] = test: MTT antiproliferative assay, SiHa cervical cancer cells; type: cell-based, human; settings: for inhibition at 10 µM / inhibition at 30 µM: Homo sapiens, read-out: Inhibition (%) ± SEM
Text: as §1, §2

A2780 cells [7] = test: MTT antiproliferative assay, A2780 ovarian cancer cells; type: cell-based, human; settings: for IC50: A2780, read-out: Calculated IC50 Value (converted); for inhibition at 10 µM / inhibition at 30 µM: read-out: Inhibition (%) ± SEM
Text: as §1, §2

[8] = system: NIH/3T3 mouse fibroblasts; test: MTT antiproliferative assay, non-malignant NIH/3T3 fibroblasts; type: cell-based; settings: for inhibition at 10 µM / inhibition at 30 µM: Mus musculus, NIH3T3, read-out: Inhibition (%) ± SEM; for action against fibroblasts (in words): NIH/3T3, lower than against the ovarian cancer cells
Text: as §1, §2

[9] = system: A549, HCT116, SK-HEP-1, and HL-60; set-up: method as in PMID 29641986; settings: four cancer cell lines; cited from earlier work
Biomphalaria glabrata = settings: cited from earlier work
Bulinus truncatus = settings: cited from earlier work
SiHa cells [10] = system: SiHa cells; set-up: method as in doi:10.1016/j.arabjc.2023.104777; settings: previous work; cited from earlier work
[11] = system: Leishmania major promastigotes; set-up: method as in PMID 9170288; settings: in vitro; cited from earlier work
[12] = system: Plasmodium falciparum schizonts; set-up: method as in PMID 9170288; settings: in vitro; cited from earlier work
human lymphocytes = system: human lymphocytes; set-up: method as in PMID 9170288; settings: cited from earlier work
[13] = system: MCF-7, MDA-MB-231, HeLa, SiHa and A2780 cells; settings: previous antiproliferative assay; cited from earlier work
[14] = ref our previous studies, read-out: IC50 (remarkable antiproliferative activity)
[15] = read-out: Calculated IC50 Value (converted)

Compound: centrapalus coumarin F
IC50 (MCF-7 cells [1]; [14]): < 10 µM
IC50 (HeLa cells [2]; [14]): < 10 µM

Compound: C=C[C@]1(C)C[C@@H](C=C(C)C)Oc2c1c(=O)oc1cccc(C)c21 [Compound 7, Centrapalus coumarin A]
IC50 (MCF-7 cells [1]; [14]): < 10 µM
IC50 (HeLa cells [2]; previous work, read-out: IC50): 9.21 µM
IC50 (HeLa cells [2]; [14]): < 10 µM
IC50 (A2780 cells [3]): 19.7 µM

Compound: N.N.[Cl][Pt][Cl] [Cisplatin, cisplatin, reference compound]
Inhibition (%) ± SEM (MCF-7 cells [4]; MCF7, 10 µM): 66.91 ± 1.81%
Inhibition (%) ± SEM (MCF-7 cells [4]; MCF7, 30 µM): 96.80 ± 0.35%
IC50 (MCF-7 cells [4]; MCF7, read-out: Calculated IC50 Value (converted)): 5.78 µM
Inhibition (%) ± SEM (MDA-MB-231 cells; MDA-MB-231, 10 µM): 42.72 ± 2.68%
Inhibition (%) ± SEM (MDA-MB-231 cells; MDA-MB-231, 30 µM): 86.44 ± 0.42%
IC50 (MDA-MB-231 cells; MDA-MB-231, read-out: Calculated IC50 Value (converted)): 10.2 µM
Inhibition (%) ± SEM (HeLa cells [5]; 10 µM): 42.61 ± 2.33%
Inhibition (%) ± SEM (HeLa cells [5]; 30 µM): 99.93 ± 0.26%
IC50 (HeLa cells [5]; [15]): 12.4 µM
Inhibition (%) ± SEM (SiHa cells [6]; 10 µM): 60.98 ± 0.92%
Inhibition (%) ± SEM (SiHa cells [6]; 30 µM): 88.95 ± 0.53%
IC50 (SiHa cells [6]; [15]): 4.29 µM
Inhibition (%) ± SEM (A2780 cells [7]; A2780, 10 µM): 83.57 ± 2.21%
Inhibition (%) ± SEM (A2780 cells [7]; A2780, 30 µM): 95.02 ± 0.28%
IC50 (A2780 cells [7]): 1.3 µM
Inhibition (%) ± SEM ([8]; NIH/3T3, 10 µM): 73.88 ± 1.63%
Inhibition (%) ± SEM ([8]; NIH/3T3, 30 µM): 97.10 ± 0.15%
IC50 ([8]; NIH/3T3, read-out: Calculated IC50 Value (converted)): 5.5 µM

Compound: C/C(=C\CC[C@@]1(C)C=Cc2c(O)cc(C)cc2O1)CC(=O)CC(C)C [anthopogochromene B]
cytotoxic activity (in words) [9]: moderate cytotoxic activity

Compound: isoethuliacoumarin A
molluscicidal activity (in words) (Biomphalaria glabrata): molluscicidal activity
molluscicidal activity (in words) (Bulinus truncatus): molluscicidal activity

Compound: C=C[C@@]1(C)C[C@@]2(C=C(C)C(=O)O2)Oc2c1c(=O)oc1cccc(C)c21 [Compound 6]
IC50 (MCF-7 cells [1]; previous work, read-out: IC50): 15.3 µM
IC50 (HeLa cells [2]; previous work, read-out: IC50): 14.6 µM
IC50 (SiHa cells [10]): 18.9 µM
IC50 (A2780 cells [3]): 29.9 µM

Compound: pauciflorin F
IC50 (MCF-7 cells [1]; [14]): < 10 µM
IC50 (HeLa cells [2]; [14]): < 10 µM

IC50 (A2780 cells [7]; Homo sapiens): 16 µM
Compound: C=C[C@@]1(C)C[C@@H](/C=C(\C)C(=O)OC)Oc2c1c(=O)oc1cccc(C)c21 [Compound 5, (3′R),(5′S)-(E)-methyl 3-(4,10-dimethyl-5-oxo-4-vinyl-2,3,4,5-tetrahydropyrano[3,2-c]chromen-2-yl)-2-methyl acrylate]
inhibition at 10 µM (MCF-7 cells [4]; MCF7, 10 µM): < 20%
inhibition at 30 µM (MCF-7 cells [4]; MCF7, 30 µM): 35.5 ± 1.51%
inhibition at 10 µM (MDA-MB-231 cells; MDA-MB-231, 10 µM): < 20%
inhibition at 30 µM (MDA-MB-231 cells; MDA-MB-231, 30 µM): 25.5 ± 1.2%
inhibition at 10 µM (HeLa cells [5]; 10 µM): < 20%
inhibition at 30 µM (HeLa cells [5]; 30 µM): 31.3 ± 1.18%
inhibition at 10 µM (SiHa cells [6]; 10 µM): < 20%
inhibition at 30 µM (SiHa cells [6]; 30 µM): 33.3 ± 1.32%
inhibition at 10 µM (A2780 cells [7]; Homo sapiens, A2780, 10 µM): 27.4 ± 1.55%
inhibition at 30 µM (A2780 cells [7]; Homo sapiens, A2780, 30 µM): 69.3 ± 1.12%
antiproliferative activity against ovarian cancer cells (in words) (A2780 cells [7]): considerable and selective
inhibition at 10 µM ([8]; NIH/3T3, 10 µM): < 20%
inhibition at 30 µM ([8]; NIH/3T3, 30 µM): 28.4 ± 2.5%
action against fibroblasts (in words) [8]: weak action

Compound: Cc1cccc2oc(=O)c3c(c12)O[C@H](C)[C@@]3(C)CC(=O)[C@@H]1OC1(C)C [cycloisobrachycoumarinone epoxide]
activity against Leishmania major promastigotes (in words) [11]: exhibited activity
activity against Plasmodium falciparum schizonts (in words) [12]: exhibited activity
inhibition on the proliferation of human lymphocytes (in words) (human lymphocytes): weak inhibition

Compound: CC1=C[C@H](C[C@]2(C)c3c(c4c(C)cccc4oc3=O)O[C@@H]2C)OC1=O [Compound 8, Hoehnelia coumarin]
antiproliferative activity (in words) [13]: ineffective

Compound: Cc1cccc2oc(=O)c3c(c12)O[C@@H](C)[C@@]3(C)CC(=O)[C@@H]1OC1(C)C [2′-epicycloisobrachycoumarinone epoxide]
activity against Leishmania major promastigotes (in words) [11]: exhibited activity
activity against Plasmodium falciparum schizonts (in words) [12]: exhibited activity
inhibition on the proliferation of human lymphocytes (in words) (human lymphocytes): weak inhibition

IC50 (A2780 cells [7]; Homo sapiens): 20.1 µM
Compound: C=CC1(C)CC(=O)C2C(=O)c3c(C)cccc3OC21C1(C)Cc2c(c3c(C)cccc3oc2=O)O1 (centres unmarked) [Compound 2, centrapalus coumarin N]
inhibition at 10 µM (MCF-7 cells [4]; MCF7, 10 µM): 34.6 ± 2.19%
inhibition at 30 µM (MCF-7 cells [4]; MCF7, 30 µM): 44.2 ± 1.76%
inhibition at 10 µM (MDA-MB-231 cells; MDA-MB-231, 10 µM): < 20%
inhibition at 30 µM (MDA-MB-231 cells; MDA-MB-231, 30 µM): 25.4 ± 2.06%
inhibition at 10 µM (HeLa cells [5]; 10 µM): < 20%
inhibition at 30 µM (HeLa cells [5]; 30 µM): 41.8 ± 1.42%
inhibition at 10 µM (SiHa cells [6]; 10 µM): < 20%
inhibition at 30 µM (SiHa cells [6]; 30 µM): 30.7 ± 1.49%
inhibition at 10 µM (A2780 cells [7]; Homo sapiens, A2780, 10 µM): 27.7 ± 1.34%
inhibition at 30 µM (A2780 cells [7]; Homo sapiens, A2780, 30 µM): 66.2 ± 0.7%
antiproliferative activity against ovarian cancer cells (in words) (A2780 cells [7]): considerable and selective
inhibition at 10 µM ([8]; NIH/3T3, 10 µM): < 20%
inhibition at 30 µM ([8]; NIH/3T3, 30 µM): 48.5 ± 2.2%
action against fibroblasts (in words) [8]: weak action

Compound: centrapalus coumarin B
IC50 (MCF-7 cells [1]; [14]): < 10 µM
IC50 (HeLa cells [2]; [14]): < 10 µM

Compound: Ethuliacoumarin A
molluscicidal activity (in words) (Biomphalaria glabrata): molluscicidal activity
molluscicidal activity (in words) (Bulinus truncatus): molluscicidal activity
